{"source": "patent US20020132296A1", "about": "“Human Ste20-like stress activated serine/threonine kinase” (priority 1997, published 2002)", "origin": "cited, not measured here", "key": {"[1]": {"test_system": "LPS-stimulated macrophages"}}, "data": [{"smiles": "C[S+]([O-])c1ccc(-c2nc(-c3ccncc3)c(-c3ccc(F)cc3)[nH]2)cc1", "note": "(centres unmarked) [SB203580]", "values": [{"measurement": "production of TNF and IL-1", "setting": "[1]", "value": "inhibit"}, {"measurement": "production of TNF, IL-6 and IL-8", "setting": "TNF-stimulated HUVECs", "value": "inhibit"}]}]}
